Measurements taken from patent US20040266885A1, “Wood preservative compositions” (priority 2001, published 2004).

Tested on: Macrotermes natalensis
Test: Field exposure of TBBA treated timber samples to an active termite population (based on EN 117); on highest termite attack score out of 3 replicates: key: Score 0: No attack; Score 1: Attempted attack; Score 2: Slight attack; Score 3: Average attack; Score 4: Strong attack
Type: in vivo
Settings: ethanol carrier, 54 days field exposure; for Mean Termite Attack Score (0-4): SD in parenthesis, 3 replicates
Excerpt: The termiticidal and/or termite repellency effect of TBBA was examined by field exposure of TBBA treated timber samples to an active population of termites (Macrotermes natalensis). Much of the test detail (timber specimen species, dimensions, preservative impregnation method, scoring system etc.) was based on the European laboratory standard EN 117. This standard is used to define the toxic values of wood preservative formulations against wood destroying termites of the species Reticulitermes santonensis.
The TBBA active was formulated as a solvent-borne product for the test. (ethanol carrier). The precise preservative solutions used were 0% (ethanol only), 1% TBBA, 3% TBBA, 5% TBBA, 7% TBBA and 10% TBBA (all w/w).
AU wood block specimens were of Scots pine sapwood (Pinus sylvestris) with dimensions of 50×25×15 mm. All the test blocks were vacuum impregnated with TBBA according to the method of EN 117. Distribution of the treated blocks in the test was as follows:
TS Specimens: to determine the efficacy of the TBBA active (at different concentrations) against termite attack. SCS Specimens: to confirm absence of a termiticidal effect by the TBBA carrier (ethanol). UCS Specimens: to establish the virulence of the field population of termites.
The termite field site was established in Ginginglovu (Zululand, South Africa). The soil type of the area was a Hutton Bush Veldt soil (sandy loam soil). The site was situated within 10 m of an active termite mound on a raised flat platform of soil established some 5 cm above ground level. The test specimens were randomly positioned on this platform and carefully covered with a waterproof flat plastic roof. This plastic roof was covered with soil to allow temperature and humidity conditions within the test zone to remain representative of the locale. The test specimens were left in-situ for a period of 54 days then scored for termite attack according the system defined in European standard EN 117 as follows:
Score 1: Attempted attack

CC(C)(c1cc(Br)c(O)c(Br)c1)c1cc(Br)c(O)c(Br)c1 [TBBA, Tetrabromobisphenol A]
Mean Termite Attack Score (0-4) (1% TBBA (w/w)): 0.00 (0.00) | highest termite attack score out of 3 replicates (1% TBBA): 0 | Mean Termite Attack Score (0-4) (3% TBBA (w/w)): 0.00 (0.00) | highest termite attack score out of 3 replicates (3% TBBA): 0 | Mean Termite Attack Score (0-4) (5% TBBA (w/w)): 0.00 (0.00) | highest termite attack score out of 3 replicates (5% TBBA): 0 | Mean Termite Attack Score (0-4) (7% TBBA (w/w)): 0.33 (0.58) | highest termite attack score out of 3 replicates (7% TBBA): 1 | Mean Termite Attack Score (0-4) (10% TBBA (w/w)): 0.00 (0.00) | highest termite attack score out of 3 replicates (10% TBBA): 0
